Laboratory results as given in patent publication US12673918B2, “Small molecule RPN13 inhibitors with antitumor properties” (The Johns Hopkins University, priority 2019, dated 2026).

What was measured:
HS578T = details: human
ES2-luc xenograft = assay: ES2-luc intraperitoneal xenograft in nude mice; format: in vivo; details: 10 mg/Kg every 3 days, total 12 doses
Procedure: ES2 is a human cell line derived from a high grade ovarian clear cell carcinoma (42). The efficacy of RA375 against the ES2 xenograft model expressing luciferase (ES2-luc) was tested. Nude female mice were inoculated with ES2-luc cells into the peritoneal cavity. After 3 days the mice were imaged for their basal luminescence activity and randomized into two groups (n=8). […] Mice were imaged after the first and second week of treatment for their luciferase activity to assess tumor burden.
Briefly, female nude mice were injected interperitoneally (i.p.) with ES2-luc cells (1×10^6) in 100 μL PBS and the basal luminescence was measured after three days using IVIS 200 imaging after injecting luciferin. […] Over the treatment period mice were imaged every week for bioluminescence to monitor tumor growth.
Tumor Studies: Female C57BL6 or Nude mice were inoculated with 10^6 ES2-Luciferase cells i.p. in 100 uL PBC, or ID8-VegfDefb29 syngeneic mouse model of ovarian cancer expressing luciferase (62) i.p. in 100 μL PBS. At day 3, mice were imaged for basal level luminescence activity with a Xenogen IVIS 200 after injection i.p. with luciferin (0.3 mg in 100 water). Mice were randomized into two groups (n=8) and treated i.p. with compounds or vehicle (25% (w/v) β-Hydroxypropylcyclodextrin in water), and imaged again on days 7 and 14. RA375 was administered i.p. at 10 mg/Kg.

NF-κB = NF-κB dependent luciferase reporter in 293T cells; format: cell-based; details: 293T NF-κB luciferase, drug treatment 7 hr
Text: FIG. 21C illustrates 293T cells stably expressing NF-κB dependent luciferase gene that show a dose dependent reduction in bioluminescence with drug treatment (7 hr) measured by luminometer.
Activation of NF-κB is regulated by IκB proteins. IκB-α ubiquitination and degradation is an important step for the nuclear localization of NF-kB and activation of its transcriptional program.

ES2 cells = assay: Annexin V apoptosis flow cytometry, ES2 cells; format: cell-based, human; details: ES2, 12 hr
Procedure: FIG. 7D illustrates surface PS staining of 10^5 ES2 cells treated with compounds for 12 hr and re-suspended in binding buffer and labeled with Annexin V-PE and 7-AAD at RT for 15 min and analyzed by flow cytometry (Becton Dickinson, Mountain View, CA).
FIG. 16D illustrates ES2 cells were treated with compounds at indicated doses for 12 hr then re-suspended in 100 μL binding buffer with 5 μL of Annexin V-PE and 5 μL of 7-AAD to examine early apoptosis. After a 15 min incubation at RT, the cells were analyzed by flow cytometry using a FACSCalibur and CellQuest software.

JHU11 = assay: MTT cytotoxicity assay, JHU11; format: cell-based; details: Table 3, 48 hr, Head & Neck (HPV −ve)
Procedure: (§1) The cytotoxic efficacy of selected compounds was assessed against multiple myeloma (MM) cell lines, as this is a validated clinical target for the licensed proteasome inhibitors.
(§2) Cell lines and cytotoxicity assays: All cell lines were obtained from the American Type Culture Collection (ATCC) and cultured in the specified medium supplemented with 10% fetal bovine serum, 100 IU/mL penicillin, and 100 μg/mL streptomycin at 37° C. in a humidified 5% CO2/95% air incubator. […] To assess drug cytotoxicity, cells were seeded at 2,500 cells/well (10,000 cells/well for MM lines) in 100 μL medium in 96-well plate and after 24 treated with compounds for 72 h, incubated according to the manufacturer's protocol with the Thiazolyl Blue Tetrazolium Bromide (Sigma, M2128) and A570 measured using a Benchmark Plus microplate spectrophotometer (BIO-RAD). IC50 data was analyzed by Graphpad Prism software. In the chirality studies the cells were treated with compounds for 48 h, and the cells were incubated and measured via the preceeding protocols.

HeLa cells = assay: XTT cytotoxicity assay, HeLa; format: cell-based, human; details: Homo sapiens, HeLa, read-out: IC50 HeLa
Text: The impact of substituents of the aromatic ring on the potency of molecules was also examined. The presence of either an electron withdrawing group (EWG) or an electron donating group (EDG) influences the reactivity of a Michael acceptor towards the target protein but can also impact specificity/selectivity.

JHU29 = assay: MTT cytotoxicity assay, JHU29; format: cell-based; details: Table 3, 48 hr, Head & Neck (HPV −ve)
Procedure: as §1, §2

HT3 = assay: MTT cytotoxicity assay, HT3; format: cell-based; details: Homo sapiens, HT-3, Table 3, 48 hr, Cervical (HPV −ve)
Procedure: as §1, §2

C[C@H]1/C(=C\c2ccc([N+](=O)[O-])cc2)C(=O)/C(=C/c2ccc([N+](=O)[O-])cc2)CN1C(=O)[C@@H](N)Cc1ccccc1
IC50 (HS578T): 40 nM | survival (ES2-luc xenograft): significantly increased survival | tumor burden (bioluminescence) (ES2-luc xenograft): significantly reduced tumor burden | decrease in NF-κB activity, relative potency (NF-κB): more potent than for RA183 | IC50 (VU93): 100 nM | surface display of Annexin V versus RA183 (ES2 cells): more potently activated a biomarker of early apoptosis

O=C(CCl)N[C@@H](Cc1ccccc1)C(=O)N1C/C(=C\c2ccc([N+](=O)[O-])cc2)C(=O)/C(=C/c2ccc([N+](=O)[O-])cc2)C1 [RA375]
IC50 (JHU11): 178 nM | IC50 (HeLa cells): 13 nM | IC50 (JHU29): 173 nM | IC50 (HT3): 162 nM
